Results published in US20230117034A1, “PYRAZOLOTRIAZINES” (Bayer Aktiengesellschaft, priority 2019, published 2023).

Columns and labels:
[1] = target: CDK12/CycK (Homo sapiens, UniProt Q9NYV4); assay: CDK12/CycK high ATP kinase assay (TR-FRET, 2 mM ATP); type: biochemical; settings: 2 mM ATP (high ATP); median; read-out: CDK12/CyclinK, 2 mM ATP (high ATP), IC50-[mol/l] (median)
Outline: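 His-tagged human CDK12/CycK (~0.75 nM) pre-incubated 15 min with compound, then 60 min at 22 °C with 2 mM ATP and 1 µM biotinylated peptide (HEPES pH 7.5, 20 mM MgCl2). EDTA stop; phospho-Ser62 antibody/Eu anti-rabbit and streptavidin-XL665 TR-FRET, 665/620 nm ratio normalised to give IC50.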

[2] = target: T1, CDK12 protein level in CAL-120 breast cancer cells (Homo sapiens, UniProt Q9NYV4); assay: CDK12 protein level: Protein Simple (CDK12, CAL-120); type: cell-based; settings: CAL-120 cells, 18 h with compound, CDK12/HSP90 peak area ratio vs vehicle, median, read-out: CDK12 protein level in CAL-120 breast ca cells, DC50-[mol/l] (median)
T1 construct: endogenous in cells; host or cells: CAL-120 human breast cancer cells (DSMZ ACC 459)
T1 sequence (Q9NYV4 whole entry): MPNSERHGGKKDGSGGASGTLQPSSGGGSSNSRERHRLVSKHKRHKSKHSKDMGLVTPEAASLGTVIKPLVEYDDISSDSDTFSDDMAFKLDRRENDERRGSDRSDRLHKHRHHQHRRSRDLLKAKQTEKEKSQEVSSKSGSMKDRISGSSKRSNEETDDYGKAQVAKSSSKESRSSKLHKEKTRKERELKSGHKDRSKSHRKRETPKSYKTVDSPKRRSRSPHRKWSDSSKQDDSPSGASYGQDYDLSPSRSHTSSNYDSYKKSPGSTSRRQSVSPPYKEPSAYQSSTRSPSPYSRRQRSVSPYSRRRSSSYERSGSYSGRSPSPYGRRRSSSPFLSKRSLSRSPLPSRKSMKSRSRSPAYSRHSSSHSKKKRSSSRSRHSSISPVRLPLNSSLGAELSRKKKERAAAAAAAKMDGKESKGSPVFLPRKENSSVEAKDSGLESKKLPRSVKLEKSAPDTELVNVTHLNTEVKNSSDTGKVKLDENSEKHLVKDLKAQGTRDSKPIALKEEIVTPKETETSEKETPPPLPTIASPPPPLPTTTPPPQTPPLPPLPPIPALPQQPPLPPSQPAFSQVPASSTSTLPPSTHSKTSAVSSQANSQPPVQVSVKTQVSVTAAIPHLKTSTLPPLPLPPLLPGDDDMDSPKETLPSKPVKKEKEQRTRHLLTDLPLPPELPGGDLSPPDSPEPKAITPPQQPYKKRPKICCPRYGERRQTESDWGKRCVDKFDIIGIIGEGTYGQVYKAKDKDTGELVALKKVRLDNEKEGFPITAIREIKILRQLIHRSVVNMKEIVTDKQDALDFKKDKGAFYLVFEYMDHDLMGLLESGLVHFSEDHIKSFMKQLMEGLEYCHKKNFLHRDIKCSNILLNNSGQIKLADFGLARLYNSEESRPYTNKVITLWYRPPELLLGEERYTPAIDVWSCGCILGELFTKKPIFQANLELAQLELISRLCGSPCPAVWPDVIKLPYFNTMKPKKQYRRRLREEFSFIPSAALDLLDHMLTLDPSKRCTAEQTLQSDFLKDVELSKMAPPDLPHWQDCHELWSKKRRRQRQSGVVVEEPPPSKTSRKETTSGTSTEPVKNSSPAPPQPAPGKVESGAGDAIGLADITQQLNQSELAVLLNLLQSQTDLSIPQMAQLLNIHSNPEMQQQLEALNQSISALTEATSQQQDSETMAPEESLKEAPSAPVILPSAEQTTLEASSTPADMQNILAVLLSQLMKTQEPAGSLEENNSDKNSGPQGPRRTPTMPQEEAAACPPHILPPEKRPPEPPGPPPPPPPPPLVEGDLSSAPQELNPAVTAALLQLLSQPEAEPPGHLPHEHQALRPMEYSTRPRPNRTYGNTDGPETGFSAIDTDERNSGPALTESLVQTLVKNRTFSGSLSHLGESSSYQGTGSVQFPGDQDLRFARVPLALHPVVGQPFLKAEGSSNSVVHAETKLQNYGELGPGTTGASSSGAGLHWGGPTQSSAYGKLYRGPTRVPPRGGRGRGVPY
T1 sequence (O75909 whole entry partner): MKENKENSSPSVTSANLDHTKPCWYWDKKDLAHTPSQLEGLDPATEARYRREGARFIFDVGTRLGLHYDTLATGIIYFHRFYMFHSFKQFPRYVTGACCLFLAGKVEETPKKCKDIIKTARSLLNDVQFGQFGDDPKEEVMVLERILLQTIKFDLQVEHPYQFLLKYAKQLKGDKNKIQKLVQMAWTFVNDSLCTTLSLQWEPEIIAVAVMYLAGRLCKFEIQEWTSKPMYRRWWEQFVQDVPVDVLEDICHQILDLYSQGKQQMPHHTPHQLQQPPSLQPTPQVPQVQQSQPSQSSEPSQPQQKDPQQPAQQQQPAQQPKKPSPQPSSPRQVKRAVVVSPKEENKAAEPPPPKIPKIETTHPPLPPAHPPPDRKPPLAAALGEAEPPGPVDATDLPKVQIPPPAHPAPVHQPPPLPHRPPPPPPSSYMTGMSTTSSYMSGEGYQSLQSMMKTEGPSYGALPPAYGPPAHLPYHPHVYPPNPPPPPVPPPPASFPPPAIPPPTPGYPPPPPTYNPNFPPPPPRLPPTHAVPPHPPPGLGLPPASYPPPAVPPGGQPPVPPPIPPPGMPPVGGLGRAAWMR
Outline: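 Cells grown 24 h, then treated with compounds for 18 h at 37° C against DMSO controls. Lysates (0.4 microgramms protein) run on Protein Simple 66-440 kDa size assay with CDK12 and HSP90 loading-control antibodies. CDK12/HSP90 peak-area ratios versus vehicle gave DC50 (50% reduction) by 4-parameter fit.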

CDK12/CycK, sequence (Q9NYV4 with tags, fused parts or gaps): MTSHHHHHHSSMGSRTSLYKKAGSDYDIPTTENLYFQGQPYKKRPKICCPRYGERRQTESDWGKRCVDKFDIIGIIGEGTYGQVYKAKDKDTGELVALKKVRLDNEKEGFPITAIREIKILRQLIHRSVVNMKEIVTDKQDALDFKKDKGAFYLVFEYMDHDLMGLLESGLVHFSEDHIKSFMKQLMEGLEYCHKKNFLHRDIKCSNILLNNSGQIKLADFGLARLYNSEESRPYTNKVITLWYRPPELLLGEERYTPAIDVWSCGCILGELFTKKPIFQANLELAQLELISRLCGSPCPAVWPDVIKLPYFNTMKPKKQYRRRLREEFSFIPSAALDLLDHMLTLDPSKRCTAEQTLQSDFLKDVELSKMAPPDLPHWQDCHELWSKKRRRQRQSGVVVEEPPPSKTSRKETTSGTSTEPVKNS
CDK12/CycK, sequence (O75909 1-300 partner limits assumed): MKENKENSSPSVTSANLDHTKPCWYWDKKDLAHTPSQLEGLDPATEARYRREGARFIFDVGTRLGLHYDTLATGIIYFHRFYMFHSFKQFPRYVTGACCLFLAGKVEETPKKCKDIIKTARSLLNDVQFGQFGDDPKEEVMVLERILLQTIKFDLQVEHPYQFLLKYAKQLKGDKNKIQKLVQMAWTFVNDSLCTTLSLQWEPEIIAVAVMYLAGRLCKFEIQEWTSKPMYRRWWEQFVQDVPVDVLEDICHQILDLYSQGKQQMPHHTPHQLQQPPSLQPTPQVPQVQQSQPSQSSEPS

Compound `COc1cccc(-c2nnc(CNc3nc(N4CCOCC4)nc4c(Br)cnn34)[nH]2)c1` [Example 50, 8-bromo-N-{[5-(3-methoxyphenyl)-4H-1,2,4-triazol-3-yl]methyl}-2-(morpholin-4-yl)pyrazolo[1,5-a][1,3,5]triazin-4-amine] has an IC50 [1] of 2800 nM and a DC50 [2] of 39.6 nM.

`Brc1cnn2c(NCc3nc4ccccc4[nH]3)nc(N3CC4(COC4)C3)nc12` [Example 48, N-[(1H-benzimidazol-2-yl)methyl]-8-bromo-2-(2-oxa-6-azaspiro[3.3]heptan-6-yl)pyrazolo[1,5-a][1,3,5]triazin-4-amine] showed an IC50 [1] greater than 5710 nM and a DC50 [2] of less than 30 nM.

Work on `Brc1cnn2c(NCc3nc4ccccc4[nH]3)nc(N3CCCC3)nc12` [Example 47, N-[(1H-benzimidazol-2-yl)methyl]-8-bromo-2-(pyrrolidin-1-yl)pyrazolo[1,5-a][1,3,5]triazin-4-amine] yielded an IC50 [1] of 7190 nM and a DC50 [2] of 58.9 nM.

In the case of `Brc1cnn2c(NCc3nc4ccccc4[nH]3)nc(N3CCCCC3)nc12` [Example 46, N-[(1H-benzimidazol-2-yl)methyl]-8-bromo-2-(piperidin-1-yl)pyrazolo[1,5-a][1,3,5]triazin-4-amine], the IC50 [1] is reported as 3330 nM and the DC50 [2] is reported as less than 30 nM.

In the case of `Brc1cnn2c(NCc3nnc(-c4ccccn4)[nH]3)nc(N3CCOCC3)nc12` [Example 54, 8-bromo-2-(morpholin-4-yl)-N-{[5-(pyridin-2-yl)-4H-1,2,4-triazol-3-yl]methyl}pyrazolo[1,5-a][1,3,5]triazin-4-amine], the IC50 [1] is reported as 5650 nM and the DC50 [2] is reported as less than 30 nM.
